Broadly, the Ki is the equilibrium dissociation constant of an inhibitor or competing ligand from its target.

In this test the target is T1, c-Met (Homo sapiens, UniProt P08581).
T1 construct: A PCR product covering residues 1058-1365 of c-Met (c-Met kinase domain) is generated; made in house; host or cells: baculovirus-infected (insect) cells
T1 sequence (P08581 1058-1365): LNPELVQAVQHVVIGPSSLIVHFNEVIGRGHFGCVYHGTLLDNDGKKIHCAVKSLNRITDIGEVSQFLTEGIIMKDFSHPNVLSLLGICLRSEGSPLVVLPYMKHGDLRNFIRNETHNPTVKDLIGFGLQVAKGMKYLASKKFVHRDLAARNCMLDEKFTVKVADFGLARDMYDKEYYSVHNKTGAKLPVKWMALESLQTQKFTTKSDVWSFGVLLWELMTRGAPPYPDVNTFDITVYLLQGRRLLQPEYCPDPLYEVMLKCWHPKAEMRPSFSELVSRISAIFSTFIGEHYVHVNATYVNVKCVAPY
Put plainly: c-Met receptor assay (HTRF kinase assay with GST-cMet (P), gastrin and ATP). The format is biochemical. The following applies: illustrative activity values. The method, then:
Phosphorylation of the purified GST-cMET is performed by incubating the protein for 3 h at RT with the following:
After incubation, the solution is concentrated in a Vivaspin 20 ml Concentrator to a volume less than 2.00 ml. The solution is applied to the same Superdex 75 16/60 column used above after re-equilibration. The GST-cMET is eluted as described above. The elution fractions corresponding to the first eluted peak on the chromatogram are run on a 12% Tris Glycine gel, as above, to identify the fractions with GST-cMET. Fractions are pooled and the OD280 is read with the column buffer used as the blank.
A Kinase reaction Buffer is prepared as follows:
When the assay is carried out, freshly add:
The HTRF buffer contains:
1. Dilute GST-cMet (P) enzyme in kinase buffer as follows:
2. Assay plate preparation:
Then incubate the plate at RT for 30 min.
3. Prepare Gastrin and ATP working solution in kinase reaction buffer as follows:
Use Biomek FX to add 20 μl ATP and Gastrin working solution to the assay plate to start reaction, incubate the plate at RT for 1 h.
KM ATP, KM gastrin for various enzymes were determined by HTRF/^33P labeling and HTRF methods.
Cloning, Expression and Purification of c-Met Kinase Domain
Alternative Purification of Human GST-cMET from Baculovirus Cells
The resin is washed with 10 column volumes (100 mL) of Lysis Buffer. […] The elution is collected as 15 mL fractions. Aliquots of the elution fractions are run on SDS PAGE (12% Tris Glycine gel, Invitrogen, #EC6005BOX). The gel is stained with 0.25% Coomassie Blue stain. Fractions with GST-cMET are concentrated with a Vivaspin 20 mL Concentrator (#VS2002; 10.00 MW cutoff) to a final volume less than 2.0 ml. […] The GST-cMET is eluted with an isocratic run of the above buffer, with the eluent collected in 1.0 mL fractions. Fractions with significant OD280 readings are run on another 12% Tris Glycine gel. The peak tubes with GST-cMET are pooled and the OD280 is read with the column buffer listed above as the blank buffer. […]
(In general: TR-FRET usually uses a lanthanide donor and a delayed reading to cut background.)
In turn, `COc1cc2nccc(Oc3ccc(Nc4ncccc4C(=O)NC(C)c4nccs4)cc3)c2cc1OC` (stereo not drawn) [Example 24, 2-(4-(6,7-dimethoxyquinoline-4-yloxy)phenylamino)-N-(1-(thiazol-2-yl)ethyl)nicotinamide] gave a Ki of 136 nM. With `O=C(Nc1ccccc1)c1cccnc1Nc1ccc(Oc2ccnc(NC(=O)N3CCCC3)c2)c(F)c1` [Example 5, 2-(3-fluoro-4-(2-(pyrrolidine-1-carboxamido)pyridin-4-yloxy)phenylamino)-N-phenylnicotinamide] the figure was 0.6 nM.

In turn, `CSc1ncc(C(=O)Nc2ccccc2)c(Nc2ccc(Oc3ccnc(NC(=O)N4CCCC4)c3)c(F)c2)n1` [Example 30, 4-(3-fluoro-4-(2-(pyrrolidine-1-carboxamido)pyridin-4-yloxy)phenylamino)-2-(methylthio)-N-phenylpyrimidin-5-carboxamide] returned a Ki of 0.2 nM. Next, `COc1ccc2c(Oc3ccc(Nc4ncc(-c5ccsc5)cc4C(=O)Nc4ccccc4)cc3F)ccnc2c1` [Example 4, 2-(3-fluoro-4-(7-methoxyquinolin-4-yloxy)phenylamino)-N-phenyl-5-(thiophen-3-yl)nicotinamide]: 4.7 nM; `COc1ccc2c(Oc3ccc(Nc4nccnc4C(=O)Nc4ccccc4)cc3F)ccnc2c1` [Example 36, 3-(3-fluoro-4-(7-methoxyquinolin-4-yloxy)phenylamino)-N-phenylpyrazine-2-carboxamide]: 29.3 nM; `Cc1cnc(Nc2ccc(Oc3ccnc(NC(=O)N4CCOCC4)c3)c(F)c2)c(C(=O)Nc2ccccc2)c1` [Example 1, N-(4-(2-fluoro-4-(5-methyl-3-(phenylcarbamoyl)pyridin-2-ylamino)phenoxy)pyridin-2-yl)morpholine-4-carboxamide]: 1.7 nM. For `COc1cc2nccc(Oc3ccc(Nc4ncccc4C(=O)NCc4ncc[nH]4)cc3)c2cc1OC` [Example 28, N-((1H-imidazol-2-yl)methyl)-2-(4-(6,7-dimethoxyquinoline-4-yloxy)phenylamino)nicotinamide], the Ki came out at 576 nM.

Compound `COc1cc2nccc(Oc3ccc(Nc4ncccc4C(=O)NCc4nccs4)cc3)c2cc1OC` [Example 27, 2-(4-(6,7-dimethoxyquinoline-4-yloxy)phenylamino)-N-(thiazol-2-ylmethyl)nicotinamide] came in with an inhibitory constant (Ki) of 180 nM. This Ki lies about 3.2-fold lower than the previous one. In the case of `COc1cc2nccc(Oc3ccc(Nc4ncccc4C(=O)Nc4ncco4)cc3)c2cc1OC` [Example 29, 2-(4-(6,7-dimethoxyquinoline-4-yloxy)phenylamino)-N-(oxazol-2-yl)nicotinamide], the affinity, expressed as Ki, was 196 nM. With `COc1cc2c(Oc3ccc(Nc4ncccc4C(=O)NCc4ccccc4)cc3)ccnc2cc1OCCCN1CCOCC1` [Example 15, N-benzyl-2-(4-(6-methoxy-7-(3-morpholinopropoxy)quinolin-4-yloxy)phenylamino)nicotinamide] the figure was 4.8 nM; with `COc1ccccc1NC(=O)c1cccnc1Nc1ccc(Oc2ccnc3cc(OCc4ccccc4)c(OC)cc23)c(F)c1` [Example 10, 2-(4-(7-(benzyloxy)-6-methoxyquinolin-4-yloxy)-3-fluorophenylamino)-N-(2-methoxyphenyl)nicotinamide], 40.5 nM; with `CNC(=O)c1cccnc1Nc1ccc(Oc2ccnc3cc(OC)c(OC)cc23)cc1` [Example 26, 2-(4-(6,7-dimethoxyquinoline-4-yloxy)phenylamino)-N-methylnicotinamide], 498 nM.

The values are drawn from US7915287B2, “Substituted heterocycles and methods of use” (Amgen Inc., priority 2006, dated 2011).
